Data reported in patent EP4806892A1, “CEREBLON E3 UBIQUITIN LIGASE INHIBITOR” (GAN & LEE PHARMACEUTICALS CO., LTD., priority 2023, dated 2025).
pIC50: −log10 of the molar value.

Columns and labels:
VCaP cell = VCaP cell proliferation inhibition (WST-8); assay type: cell-based; conditions: Homo sapiens, VCaP cells, 168 hours, read-out: IC50 for inhibiting VCAP cell proliferation
Description: VCaP cells (ATCC, CRL-2876) were cultured in DMEM (Gibco, 11995-065) complete medium containing 10% fetal bovine serum (Hyclone, SH30406.05). On the first day of the experiment, VCaP cells were seeded at a density of 15,000 cells/well in a 96-well plate using DMEM medium containing 10% fetal bovine serum, with 100 µL of cell suspension per well, and cultured overnight in a cell culture incubator at 37°C and 5% CO2. […] The final concentration of the compound was 9 concentration points of 5-fold serial dilution starting from 10 µM. The wells to which 100 µL of DMEM medium containing 10% fetal bovine serum was added were set as blank controls and cultured in a cell culture incubator at 37°C and 5% CO2 for 168 hours. On the ninth day, the 96-well cell culture plate was removed and 1/10 volume of WST-8 (Beytime, C0040) reagent was added to each well. The absorbance at 450 nm was measured using a microplate reader (TECAN, F50).

LNCAP cell = experiment: LNCaP cell proliferation inhibition (WST-8); assay type: cell-based; conditions: Homo sapiens, LNCaP FGC cells, 96 hours, read-out: IC50 for inhibiting LNCAP cell proliferation
Description: LNCaP FGC cells (ATCC, CLR-1740) were cultured in RPMI 1640 (ATCC, 30-2001) complete medium supplemented with 10% fetal bovine serum (Hyclone, SH30406.05). On the first day of the experiment, LNCaP FGC cells were seeded at a density of 5,000 cells/well in 96-well plates using RPMI 1640 medium supplemented with 10% fetal bovine serum, with 100 µL of cell suspension per well. The cells were cultured overnight in a 37°C, 5% CO2 cell incubator. On the second day, 100 µL of different concentrations of the compound to be tested and the positive control sample ARV-766 (source: Energy Chemical) prepared in culture medium were added to each well. The final concentration of the compound was 9 concentration points of 5-fold serial dilution starting from 10 µM. The wells to which 100 µL of RPMI 1640 culture medium containing 10% fetal bovine serum was added were set as controls. The cells were cultured in a cell culture incubator at 37°C and 5% CO2 for 96 hours. On the sixth day, the 96-well cell culture plate was removed, and 1/10 volume of WST-8 (Beytime, C0040) reagent was added to each well. The absorbance at 450 nm was detected using a microplate reader (TECAN, F50).

SMILES	pIC50 (VCaP cell)	pIC50 (LNCAP cell)
C[C@H]1CC2(CCN(c3ccc(C(=O)N4CCC(CN5CCN6c7ccc(N8CCC(=O)NC8=O)cc7OCC[C@H]6C5)CC4)cc3)CC2)CN1c1ccc(C#N)c(C(F)(F)F)c1 [A-P-195]	7.89	7.00
COc1cc(O[C@H]2C(C)(C)[C@H](NC(=O)c3ccc(N4CCC(F)(CN5CCN6c7ccc(N8CCC(=O)NC8=O)cc7OCC[C@H]6C5)CC4)cc3)C2(C)C)ccc1C#N [A-P-196]	9.00	6.62
C[C@H]1CC2(CCN(c3ccc(C(=O)N4CCC(CN5CCC6(COc7cc(N8CCC(=O)NC8=O)ccc76)C(F)(F)C5)CC4)cc3)CC2)CN1c1ccc(C#N)c(Cl)c1 (stereo partly shown) [A-P-233]	7.82	7.11
C[C@H]1CC2(CCN(c3ccc(C(=O)N4CCC(CN5CCC6(CC5)CN(C)c5ccc(N7CCC(=O)NC7=O)cc5O6)CC4)cc3)CC2)CN1c1ccc(C#N)c(Cl)c1 [A-P-235, (S)-2-chloro-4-(8-(4-(4-((7-(2,4-dioxotetrahydropyrimidin-1(2H)-yl)-4-methyl-3,4-dihydrospiro[benzo[b][1,4]oxazin-2,4'-piperidine]-1'-yl)methyl)piperidine-1-carbonyl)phenyl)-3-methyl-2,8-diazaspiro[4.5]decane-2-yl)benzonitrile]	9.00	< 4.30
COc1cc(O[C@H]2C(C)(C)[C@H](NC(=O)c3ccc(N4CCC(CN5CCN(c6ccc(C(=O)N[C@H]7CCC(=O)NC7=O)c(F)c6)CC5)CC4)cc3)C2(C)C)ccc1C#N [ARV766, reference compound]	8.60	6.31
